In patent US4877746A, “Methods of carrying out assays for lipoproteins and apolipoproteins” (Pharmacia AB, priority 1985, dated 1989):
Counter-ions that a name gives are not always drawn.

Legend:
Lp(a) = assay: Sandwich immunoassay (method 1.2) of serum after prior art delipidating pretreatment, tracer uptake; format: binding
Protocol: (§1) 50 μl from the reaction mixture of step 1 was diluted according to the dilution scheme 1/18-1/54-1/162-[…]-1/1458-1/4374. Each dilution was mixed with 50 μl of mouse antiapo(a) ^125 I and incubated for 1 hour at RT, whereupon 50 μl of goat antiapo(a) was added. The reaction mixture was kept standing for 0.5 hours at RT. This was followed by precipitation of the resultant complex with the aid of solid-phase-bound anti-antibodies (2 ml Decanting Suspension, 0.5 hr and RT). The suspension was centrifuged, the supernatant then being removed by decantation and discarded.
Equal volumes of serum and pretreating solution were mixed and incubated for 2-16 hours, whereupon the sample was diluted 20-fold with phosphate buffer I. The testing method according to 1.2 was then applied to the reaction solutions. […]
The results are presented as % binding of total amount of tracer added

apo(a) = assay: Immunoassay (sandwich, mouse antiapo(a) 125I) of apo(a) in serum after pretreatment at acidic and alkaline pH; format: binding; settings: for apo(a) concentration read off after acidic pretreatment: acidic pH, 20 h; for apo(a) concentration read off after acidic pretreatment / apo(a) concentration read off after alkaline pretreatment: 1:1 with serum, RT; for apo(a) concentration read off after alkaline pretreatment: alkaline pH
Protocol: (a) Alkaline pH. Equal volumes of serum and 0.13 M NaOH were mixed and incubated at room temperature (=RT) for 2 hours, whereupon phosphate buffer I was added up to an 18-fold dilution of the sample.
(b) Acidic pH. Equal volumes of serum and 0.2 M HCl were mixed and incubated at RT for 20 hours, whereupon phosphate buffer I was added up to an 18-fold dilution of the sample.
(c) Alkaline buffer system. Equal volumes of serum and 0.2 M trisodium phosphate were mixed and incubated at RT for 1 hour, whereupon phosphate buffer I was added up to an 18-fold dilution of the sample.
as §1
In separation experiments goat antiapo(a) was replaced with sheep antiapo(a) and monoclonal antiapo(a). These antibodies were tested in soluble as well as in solid-phase-bound form. Decanting suspension was excluded when solid-phase-bound antiapo(a)s were used.

[1] = dilution 1/20, first concentration: SDS 0.5%, urea 4 M, guanidine HCl 2 M, Triton 2%, Renex 1%, lipase 500 U/l
[2] = dilution 1/20, second concentration: SDS 2.5%, urea 6 M, guanidine HCl 6 M, Triton 10%, Renex 5%, lipase 100 U/l
[3] = dilution 1/60, first concentration: SDS 0.5%, urea 4 M, guanidine HCl 2 M, Triton 2%, Renex 1%, lipase 500 U/l
[4] = dilution 1/60, second concentration: SDS 2.5%, urea 6 M, guanidine HCl 6 M, Triton 10%, Renex 5%, lipase 100 U/l
[5] = dilution 1/180, first concentration: SDS 0.5%, urea 4 M, guanidine HCl 2 M, Triton 2%, Renex 1%, lipase 500 U/l
[6] = dilution 1/180, second concentration: SDS 2.5%, urea 6 M, guanidine HCl 6 M, Triton 10%, Renex 5%, lipase 100 U/l
[7] = dilution 1/540, first concentration: SDS 0.5%, urea 4 M, guanidine HCl 2 M, Triton 2%, Renex 1%, lipase 500 U/l
[8] = dilution 1/540, second concentration: SDS 2.5%, urea 6 M, guanidine HCl 6 M, Triton 10%, Renex 5%, lipase 100 U/l

Row | Structure (SMILES) | % binding of total amount of tracer added (uptake) (Lp(a); [1]) | % binding of total amount of tracer added (uptake) (Lp(a); [2]) | % binding of total amount of tracer added (uptake) (Lp(a); [3]) | % binding of total amount of tracer added (uptake) (Lp(a); [4]) | % binding of total amount of tracer added (uptake) (Lp(a); [5]) | % binding of total amount of tracer added (uptake) (Lp(a); [6]) | % binding of total amount of tracer added (uptake) (Lp(a); [7]) | % binding of total amount of tracer added (uptake) (Lp(a); [8]) | apo(a) concentration read off after acidic pretreatment (apo(a); 0.2 M pretreating solution) | other results
1 | N=C(N)N [GUANIDINE HCl, Guanidine - HCl] | 10.0% | 10.7% | 5.6% | 6.3% | 3.6% | 4.1% | 3.1% | 3.3% |  | 
2 | O=P(O)(O)O [H3 PO4] |  |  |  |  |  |  |  |  | 28.4 U/l | 
3 | Cl [HCl, hydrochloric acid] |  |  |  |  |  |  |  |  | 41.0 U/l | 
4 | O=P([O-])([O-])[O-].[Na+].[Na+].[Na+] [Na3 PO4, trisodium phosphate] |  |  |  |  |  |  |  |  |  | apo(a) concentration read off after alkaline pretreatment (apo(a); 0.2 M pretreating solution, 1 h): 354 U/l
5 | [Na+].[OH-] [NaOH, sodium hydroxide] |  |  |  |  |  |  |  |  |  | uptake on increased treatment time (apo(a); 0.13 M NaOH, longer treatment time, given dilution): the uptake was lowered; apo(a) concentration read off after alkaline pretreatment (apo(a); 0.13 M pretreating solution, 2 h): 333 U/l; effectiveness of pretreatment (apo(a); sodium hydroxide solution versus hydrochloric acid solution): far more effective than a hydrochloric acid solution
6 | CCCCCCCCCCCCOS(=O)(=O)[O-].[Na+] [SDS, sodium dodecyl sulfate] | 10.1% | 18.8% | 5.3% | 13.3% | 3.6% | 7.0% | 3.0% | 4.5% |  | 
7 | NC(N)=O [UREA, Urea] | 10.0% | 9.6% | 5.4% | 5.3% | 3.6% | 3.8% | 3.2% | 3.1% |  | 
8 | O=C(O)CC(O)(CC(=O)O)C(=O)O [citric acid] |  |  |  |  |  |  |  |  | 25.2 U/l | 
